Results taken from ChEMBL document CHEMBL4406824, “Phenolic N-monosubstituted carbamates: Antitubercular and toxicity evaluation of multi-targeting compounds” (Eur J Med Chem, 2019).
In brackets after ≈: the same amount, converted by molar mass.

Key:
[1] = target: T1, Isocitrate lyase (Mycobacterium tuberculosis, UniProt P9WKK7); assay: Inhibition of recombinant Mycobacterium tuberculosis ICL expressed in Escherichia coli BL21 (DE3) cells using DL-isocitric acid trisodium salt hydrate as substrate after 30 mins
T1 sequence (P9WKK7 whole entry): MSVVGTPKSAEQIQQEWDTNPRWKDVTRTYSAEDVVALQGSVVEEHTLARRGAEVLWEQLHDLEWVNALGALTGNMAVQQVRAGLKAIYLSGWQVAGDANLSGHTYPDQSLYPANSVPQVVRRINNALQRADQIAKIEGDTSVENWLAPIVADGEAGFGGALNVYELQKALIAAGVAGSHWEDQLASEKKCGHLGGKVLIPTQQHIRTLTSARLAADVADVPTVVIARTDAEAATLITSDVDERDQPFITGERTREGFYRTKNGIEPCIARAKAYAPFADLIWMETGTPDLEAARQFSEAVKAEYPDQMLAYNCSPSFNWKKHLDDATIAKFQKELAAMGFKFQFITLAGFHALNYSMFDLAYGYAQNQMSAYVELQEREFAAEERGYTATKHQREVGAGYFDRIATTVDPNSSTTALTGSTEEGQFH

[2] = tested on: Mycobacterium tuberculosis; assay: Antimycobacterial activity against Mycobacterium tuberculosis H37Ra ITM-M006710 after 48 hr by resazurin dye based microdilution method; type: functional; details: H37Ra ITM-M006710, 48 h
[3] = tested on: Mycobacterium kansasii; assay: Antimycobacterial activity against Mycobacterium kansasii 6509/96 after 7 days; type: functional; details: 6509/96, 168 h
[4] = tested on: Mycobacterium kansasii; assay: Antimycobacterial activity against Mycobacterium kansasii 6509/96 after 14 days; type: functional; details: 6509/96, 336 h
[5] = tested on: Mycobacterium tuberculosis; assay: Antimycobacterial activity against XDR Mycobacterium tuberculosis Praha 131 after 21 days; type: functional; details: Praha 131, 504 h
[6] = tested on: Mycobacterium kansasii; assay: Antimycobacterial activity against Mycobacterium kansasii 6509/96 after 21 days; type: functional; details: 6509/96, 504 h
[7] = tested on: Mycobacterium tuberculosis; type: functional; details: H37Rv 331/88, 336 h
[8] = tested on: Mycobacterium tuberculosis; type: functional, H37Rv 331/88; design: reference not given here
[9] = tested on: Mycobacterium kansasii; assay: Antimycobacterial activity against Mycobacterium kansasii 235/80 after 14 days; type: functional; details: 235/80, 336 h
[10] = tested on: HepG2; assay: Cytostatic activity against human HepG2 cells preincubated for overnight in serum free medium followed by compound wash out and further incubated for 72 hrs in presence of serum by MTT assay; type: ADME, cell-based
[11] = tested on: Mycobacterium tuberculosis; type: functional; details: H37Rv 331/88, 504 h
[12] = tested on: Mycobacterium avium; assay: Antimycobacterial activity against Mycobacterium avium 330/88 after 21 days; type: functional; details: 330/88, 504 h
[13] = tested on: Mycolicibacterium aurum; assay: Antimycobacterial activity against Mycobacterium aurum DSM 43999 after 72 hr by resazurin dye based microdilution method; type: functional; details: DSM 43999, 72 h
[14] = tested on: Mycobacterium tuberculosis H37Rv; assay: Inhibition of recombinant Mycobacterium tuberculosis H37Rv ICL1 expressed in Escherichia coli BL21 (DE3) cells at 10 uM using (+)-potassium Ds-threo-isocitrate as substrate by glyoxylate phenyl hydrazone formation assay relative to control
[15] = tested on: Mycobacterium kansasii; assay: Potency index, ratio of p-aminosalicylic acid MIC to compound MIC for antimycobacterial activity against Mycobacterium kansasii 235/80; type: functional
[16] = tested on: Mycobacterium kansasii; assay: Potency index, ratio of p-aminosalicylic acid MIC to compound MIC for antimycobacterial activity against Mycobacterium kansasii 6509/96; type: functional
[17] = tested on: Mycobacterium avium; assay: Potency index, ratio of p-aminosalicylic acid MIC to compound MIC for antimycobacterial activity against Mycobacterium avium 330/88; type: functional
[18] = tested on: Mycobacterium kansasii; assay: Antimycobacterial activity against Mycobacterium kansasii 235/80 after 21 days; type: functional; details: 235/80, 504 h
[19] = tested on: Mycolicibacterium smegmatis; assay: Antimycobacterial activity against Mycobacterium smegmatis DSM 43465 after 120 hr by resazurin dye based microdilution method; type: functional; details: DSM 43465, 120 h
[20] = tested on: Mycobacterium kansasii; assay: Antimycobacterial activity against Mycobacterium kansasii 235/80 after 7 days; type: functional; details: 235/80, 168 h
[21] = in vitro; details: human, HepG2 cells
Description: Selectivity index, ratio of IC50 for human HepG2 cells to MIC for antimycobacterial activity against Mycobacterium tuberculosis H37Rv

[22] = tested on: Mycobacterium tuberculosis; assay: Antimycobacterial activity against XDR Mycobacterium tuberculosis Praha 131 after 14 days; type: functional; details: Praha 131, 336 h
[23] = tested on: HepG2; assay: Cytotoxicity against human HepG2 cells assessed as reduction in cell viability after overnight incubation by MTT assay; type: cell-based
[24] = tested on: Mycobacterium avium; assay: Antimycobacterial activity against Mycobacterium avium 330/88 after 14 days; type: functional; details: 330/88, 336 h

## COC(=O)/C=C/C(=O)c1ccc(OC)cc1
[1]
  IC50: 30.9 µM

## O=C(NC12CC3CC(CC(C3)C1)C2)Oc1ccc(Cl)cc1C(=O)Nc1ccc(C(F)(F)F)cc1
[2]
  MIC: 2 µM (≈ 0.986 µg/mL)
[3]
  MIC: 4 µM (≈ 1.97 µg/mL)
[4]
  MIC: 4 µM (≈ 1.97 µg/mL)
[5]
  MIC: 1 µM (≈ 0.493 µg/mL)
[6]
  MIC: 4 µM (≈ 1.97 µg/mL)
[7]
  MIC: ≤ 0.5 µM
[8]
  Ratio: >125
[9]
  MIC: 4 µM (≈ 1.97 µg/mL)
[10]
  IC50: 4.85 µM
[11]
  MIC: 1 µM (≈ 0.493 µg/mL)
[12]
  MIC: 4 µM (≈ 1.97 µg/mL)
[13]
  MIC: ≤ 0.79 µM
[14]
  inhibition: 15%
[15]
  Ratio: >250
[16]
  Ratio: >250
[17]
  Ratio: >31
[18]
  MIC: 4 µM (≈ 1.97 µg/mL)
[19]
  MIC: 4 µM (≈ 1.97 µg/mL)
[20]
  MIC: 4 µM (≈ 1.97 µg/mL)
[21]
  selectivity ratio: > 125
[22]
  MIC: 1 µM (≈ 0.493 µg/mL)
[23]
  IC50: > 125 µM
[24]
  MIC: 4 µM (≈ 1.97 µg/mL)

## O=C(Nc1ccccc1)Oc1ccc(Cl)cc1C(=O)Nc1ccc(C(F)(F)F)cc1
[2]
  MIC: ≤ 0.9 µM
[3]
  MIC: 2 µM (≈ 0.87 µg/mL)
[4]
  MIC: 4 µM (≈ 1.74 µg/mL)
[5]
  MIC: 1 µM (≈ 0.435 µg/mL)
[6]
  MIC: 4 µM (≈ 1.74 µg/mL)
[7]
  MIC: ≤ 0.5 µM
[8]
  Ratio: >125
[9]
  MIC: 4 µM (≈ 1.74 µg/mL)
[10]
  IC50: 2.45 µM
[11]
  MIC: 1 µM (≈ 0.435 µg/mL)
[12]
  MIC: 8 µM (≈ 3.48 µg/mL)
[13]
  MIC: ≤ 0.9 µM
[14]
  inhibition: 13%
[15]
  Ratio: >250
[16]
  Ratio: >250
[18]
  MIC: 4 µM (≈ 1.74 µg/mL)
[19]
  MIC: ≤ 0.9 µM
[20]
  MIC: 4 µM (≈ 1.74 µg/mL)
[21]
  selectivity ratio: 9.8 to 19.6
[22]
  MIC: 1 µM (≈ 0.435 µg/mL)
[23]
  IC50: 9.8 µM
[24]
  MIC: 8 µM (≈ 3.48 µg/mL)
